The test system of one data set is VP16-AR fusion protein. It is filed as cell-based. The settings on record: Cos-7 cells, 24 hours.
The next data set concerns VCaP cells. In words: VCaP cell proliferation. It is filed as cell-based, human. The settings on record: 1 and 10 μM, media containing FBS.
In data set [1] the test system is DU145 human prostate cancer cells. In words: Growth of AR-negative DU145 cells in vitro. It is filed as cell-based.
Data set [2] can be described thus: Pharmacokinetics of RD162 in mice.
In another data set the test system is AR. It is filed as cell-based. The settings on record: in vitro.
Data set [3] addresses T1, mutant AR protein (W741C) (Homo sapiens, UniProt P10275, W742C).
T1 sequence (P10275 1-920 W742C): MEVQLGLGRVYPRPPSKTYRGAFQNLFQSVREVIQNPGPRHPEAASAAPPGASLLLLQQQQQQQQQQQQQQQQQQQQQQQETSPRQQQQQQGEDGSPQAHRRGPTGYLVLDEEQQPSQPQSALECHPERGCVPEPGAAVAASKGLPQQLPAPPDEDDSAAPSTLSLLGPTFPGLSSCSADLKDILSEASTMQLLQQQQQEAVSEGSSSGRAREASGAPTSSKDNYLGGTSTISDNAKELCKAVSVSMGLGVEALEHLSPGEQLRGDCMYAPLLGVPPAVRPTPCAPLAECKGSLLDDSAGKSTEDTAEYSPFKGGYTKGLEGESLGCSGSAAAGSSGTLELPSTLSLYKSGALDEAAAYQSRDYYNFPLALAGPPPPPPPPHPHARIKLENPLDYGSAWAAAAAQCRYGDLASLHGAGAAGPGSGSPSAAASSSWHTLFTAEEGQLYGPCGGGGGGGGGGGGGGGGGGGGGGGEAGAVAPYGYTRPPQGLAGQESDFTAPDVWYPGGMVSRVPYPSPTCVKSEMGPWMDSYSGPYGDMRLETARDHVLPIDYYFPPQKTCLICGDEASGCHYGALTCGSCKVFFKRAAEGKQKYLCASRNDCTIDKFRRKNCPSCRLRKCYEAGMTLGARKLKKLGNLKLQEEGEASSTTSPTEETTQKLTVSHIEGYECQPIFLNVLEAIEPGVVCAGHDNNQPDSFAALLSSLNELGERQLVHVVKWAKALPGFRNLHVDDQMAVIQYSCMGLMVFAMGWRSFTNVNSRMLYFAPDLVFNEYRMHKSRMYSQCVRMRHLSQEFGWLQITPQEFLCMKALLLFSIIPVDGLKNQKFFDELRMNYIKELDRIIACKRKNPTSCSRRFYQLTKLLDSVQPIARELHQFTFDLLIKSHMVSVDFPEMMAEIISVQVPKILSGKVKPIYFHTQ
Type of data set: cell-based.

The next data set relates to estrogen receptor. Nature of the data set: in vitro fluorescence polarization binding assay.
In a further data set the target is T2, glucocorticoid receptor (Homo sapiens, UniProt P04150).
T2 sequence (P04150 1-777): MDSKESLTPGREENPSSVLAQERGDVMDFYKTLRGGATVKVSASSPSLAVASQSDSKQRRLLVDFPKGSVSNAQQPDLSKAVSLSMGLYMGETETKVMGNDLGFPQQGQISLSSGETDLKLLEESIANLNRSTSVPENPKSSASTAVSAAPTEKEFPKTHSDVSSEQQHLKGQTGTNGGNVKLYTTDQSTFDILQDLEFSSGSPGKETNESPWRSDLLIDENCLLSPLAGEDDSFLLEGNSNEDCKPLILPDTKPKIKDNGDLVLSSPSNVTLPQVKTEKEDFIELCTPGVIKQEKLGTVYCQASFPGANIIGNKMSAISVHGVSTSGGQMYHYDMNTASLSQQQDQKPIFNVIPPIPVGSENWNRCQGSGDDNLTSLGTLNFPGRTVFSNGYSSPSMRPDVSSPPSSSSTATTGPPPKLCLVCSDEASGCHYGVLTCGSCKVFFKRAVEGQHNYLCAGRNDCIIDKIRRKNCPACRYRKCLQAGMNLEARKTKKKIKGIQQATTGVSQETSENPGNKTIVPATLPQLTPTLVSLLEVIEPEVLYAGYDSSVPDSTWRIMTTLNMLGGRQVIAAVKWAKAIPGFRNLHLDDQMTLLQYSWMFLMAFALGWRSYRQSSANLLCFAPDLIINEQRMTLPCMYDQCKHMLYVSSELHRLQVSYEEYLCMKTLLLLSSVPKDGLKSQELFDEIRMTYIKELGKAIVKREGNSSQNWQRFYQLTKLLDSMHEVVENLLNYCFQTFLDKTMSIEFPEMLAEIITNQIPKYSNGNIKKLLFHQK
Nature of the data set: in vitro fluorescence polarization binding assay.

As for `CNC(=O)c1ccc(N2C(=S)N(c3ccc(C#N)c(C(F)(F)F)c3)C(=O)C23CCC3)cc1F` [RD162], the “Activation of VP16-AR” value with VP16-AR fusion protein is listed as “neither RD162 nor MDV3100 activated VP16-AR”. Also, in the data set on VCaP cells, the “Growth of VCaP cells” value is reported as “suppressed growth”. Further, the “Growth suppression in AR-negative DU145 cells” value in data set [1] is listed as “not observed”. In addition, in data set [2], the “bioavailable after oral delivery” value is about 50% and the serum half-life result is reported as “about 30 hours”. The compound further came in with a Trough levels in data set [2] (24 hours after a single 20 mg/kg oral dose) of about 23 µM. Moreover, in the data set on AR, the “effects on AR protein expression” value is given as “no obvious changes”. Moreover, the “Transcriptional activity of mutant AR (W741C)” value in data set [3] is recorded as “inhibited the transcriptional activity”. In addition, the “binding to estrogen receptor” value in the data set with estrogen receptor is on record as “little to no binding”. Besides, on glucocorticoid receptor, the “binding to glucocorticoid receptor” value is “little to no binding”.

These data come from article PMC2981508 (Science (New York, N.Y.), 2009).
